Measured values reported in ChEMBL document CHEMBL1201862, “PubChem BioAssay data set” (2004).
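Five compound concentrations were applied to cells in 96-well plates for 48 hours; endpoints were derived by simple linear interpolation of the resulting dose-response curve. The concentration for 50% growth inhibition is given as GI50.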 Active and inactive are the calls of the source. No stated cut-off is given here; in the data, active = GI50 up to about 1.1 µM and inactive = higher.

Legend:
Experiment in all cases: growth of human tumour cells (NCI), 48 h
HT-29 = system: HT-29
RPMI-8226 = system: RPMI-8226
SN12C = system: SN12C
TK-10 = system: TK-10
UACC-62 = system: UACC-62
UACC-257 = system: UACC-257
SF-268 = system: SF-268
NCI-H522 = system: NCI-H522
HCC 2998 = system: HCC 2998
OVCAR-8 = system: OVCAR-8
K562 = system: K562
SK-OV-3 = system: SK-OV-3
SK-MEL-28 = system: SK-MEL-28
NCI/ADR-RES = system: NCI/ADR-RES
Malme-3M = system: Malme-3M
SNB-75 = system: SNB-75
MCF7 = system: MCF7
SW-620 = system: SW-620
MDA-MB-435 = system: MDA-MB-435
RXF 393 = system: RXF 393

SMILES	GI50 (HT-29)	GI50 (RPMI-8226)	GI50 (SN12C)	GI50 (TK-10)	GI50 (UACC-62)	GI50 (UACC-257)	GI50 (SF-268)	GI50 (NCI-H522)	GI50 (HCC 2998)	GI50 (OVCAR-8)	GI50 (K562)	GI50 (SK-OV-3)	GI50 (SK-MEL-28)	GI50 (NCI/ADR-RES)	GI50 (Malme-3M)	GI50 (SNB-75)	GI50 (MCF7)	GI50 (SW-620)	GI50 (MDA-MB-435)	GI50 (RXF 393)
O=c1[nH][nH]c(=O)n1CCCCCCn1c(=O)[nH][nH]c1=O	> 100 µM (inactive)	> 100 µM (inactive)	> 100 µM (inactive)	> 100 µM (inactive)	> 100 µM (inactive)	> 100 µM (inactive)	> 100 µM (inactive)	> 100 µM (inactive)	> 100 µM (inactive)	> 100 µM (inactive)	> 100 µM (inactive)	> 100 µM (inactive)	> 100 µM (inactive)	> 100 µM (inactive)	> 100 µM (inactive)	> 100 µM (inactive)	> 100 µM (inactive)	> 100 µM (inactive)	> 100 µM (inactive)	> 100 µM (inactive)
CC(=O)N(C(=O)CC(=O)NNCc1ccccc1Cl)c1ccc(Cl)cc1	> 10 µM (inactive)	> 10 µM (inactive)	> 10 µM (inactive)	> 10 µM (inactive)	> 10 µM (inactive)	> 10 µM (inactive)	> 10 µM (inactive)	> 10 µM (inactive)	> 10 µM (inactive)	> 10 µM (inactive)	> 10 µM (inactive)	> 10 µM (inactive)	> 10 µM (inactive)	> 10 µM (inactive)	> 10 µM (inactive)	> 10 µM (inactive)	5.97 µM (inactive)		> 10 µM (inactive)	> 10 µM (inactive)
CCCCCCCCCN1CCC(=O)C(C(=O)OC)C1 (stereo unspecified)	10.1 µM (inactive)	15.6 µM (inactive)	16 µM (inactive)	16.7 µM (inactive)	12.2 µM (inactive)	11 µM (inactive)	16.3 µM (inactive)	8.73 µM (inactive)	19.5 µM (inactive)	8.07 µM (inactive)		16.4 µM (inactive)		13.6 µM (inactive)		17.9 µM (inactive)	12.3 µM (inactive)	11.9 µM (inactive)	14.7 µM (inactive)	17.1 µM (inactive)
COC(=O)[C@@H]1C2OC(C)(C)OC2CN1C(=O)OCc1ccccc1 (stereo partly specified)	> 100 µM (inactive)	> 100 µM (inactive)	> 100 µM (inactive)	> 100 µM (inactive)	> 100 µM (inactive)	> 100 µM (inactive)	> 100 µM (inactive)	> 100 µM (inactive)	> 100 µM (inactive)	> 100 µM (inactive)	> 100 µM (inactive)	> 100 µM (inactive)	> 100 µM (inactive)	> 100 µM (inactive)	> 100 µM (inactive)	4.58 µM (inactive)	> 100 µM (inactive)	> 100 µM (inactive)	> 100 µM (inactive)	> 100 µM (inactive)
O=c1c2c3c(sc2nc2n1N=CN(c1ccccc1)C2)CCCC3	> 100 µM (inactive)	> 100 µM (inactive)	> 100 µM (inactive)	> 100 µM (inactive)	> 100 µM (inactive)	> 100 µM (inactive)	> 100 µM (inactive)	> 100 µM (inactive)	> 100 µM (inactive)	> 100 µM (inactive)	> 100 µM (inactive)	> 100 µM (inactive)	> 100 µM (inactive)	> 100 µM (inactive)	> 100 µM (inactive)	> 100 µM (inactive)	> 100 µM (inactive)	> 100 µM (inactive)	> 100 µM (inactive)	> 100 µM (inactive)
CC(=O)OC(C)(C)/C=C/C(=O)[C@](C)(O)[C@H]1[C@H](O)C[C@@]2(C)[C@@H]3CC=C4[C@@H](C[C@H](O)C(=O)C4(C)C)[C@]3(C)C(=O)C[C@]12C	< 0.01 µM (active)	< 0.01 µM (active)	< 0.0143 µM (active)	< 0.01 µM (active)	< 0.01 µM (active)	< 0.01 µM (active)	< 0.01 µM (active)	< 0.01 µM (active)	< 0.01 µM (active)	0.064 µM (active)	< 0.01 µM (active)	< 0.01 µM (active)	< 0.01 µM (active)	0.0112 µM (active)	< 0.01 µM (active)	< 0.01 µM (active)	< 0.01 µM (active)	< 0.01 µM (active)	< 0.01 µM (active)	< 0.01 µM (active)
Oc1cc(-c2ccccc2)nc2ncccc12	0.0646 µM (active)	0.171 µM (active)	0.268 µM (active)	0.206 µM (active)	0.0396 µM (active)	0.203 µM (active)	1.93 µM (inactive)	0.0525 µM (active)	0.232 µM (active)	0.22 µM (active)	0.0336 µM (active)	0.126 µM (active)	0.0743 µM (active)	0.0655 µM (active)	0.091 µM (active)	0.0975 µM (active)	0.0372 µM (active)	0.0438 µM (active)	0.0133 µM (active)	0.106 µM (active)
